{"source": "patent US20250221920A1", "about": "“Antioxidant Compositions” (THE BOOTS COMPANY PLC, priority 2022, published 2025)", "experiment": "Total Antioxidant Capacity (TAC) assay, Cell Biolabs kit, copper ion reagent, absorbance at 490 nm", "assay_type": "biochemical", "details": "triplicate", "protocol": "Total antioxidant capacity (TAC) was determined using a kit (Cell Biolabs, Inc) as follows; the test samples were diluted in water and a buffer to reach a final antioxidant agent to buffer ratio ranging from 1:1 to 1:1,000,000. 20 ul of test sample or control (ascorbic acid or green tea) were added to the wells of 96 well plate, followed by 180 μL of 1X Reaction Buffer (provided with the kit). The absorbance of the reaction mix in each well was measured at 490 nm to get an initial reading. 50 μL of the 1X Copper Ion Reagent (provided with the kit) were added to each well to initiate the reaction. The reaction was allowed to carry on for 5 minutes on an orbital shaker and 50 μL of 1X Stop Solution (provided with the kit) added to each well to terminate the reaction. The colour change was assessed using a plate reader at 490 nm.\nThe stronger the colour change at the end of the reaction, the higher the spectrophotometric value, and the higher the antioxidant capacity of the antioxidant agents.\n21 antioxidant compounds were tested in triplicate at antioxidant: buffer ratios ranging from 1:1 to 1:1,000,000.\nThe actual TAC of each of these compounds was calculated using the TAC assay described above, and compared with the predicted values to determine the % difference in TAC."}
{"substance": "Dimethylmethylmethoxy chromanol", "values": [{"measurement": "Total Antioxidant Capacity (TAC)", "setting": "Antioxidant:Buffer 1:1 (concentration 1)", "value": 1.839}, {"measurement": "Total Antioxidant Capacity (TAC)", "setting": "Antioxidant:Buffer 1:10 (concentration 0.1)", "value": 1.807}, {"measurement": "Total Antioxidant Capacity (TAC)", "setting": "Antioxidant:Buffer 1:100 (concentration 0.01)", "value": 1.824}]}
